Assays:
HCT-15 cells [1] = assay: Transwell invasion assay; type: cell-based, human; settings: HCT-15, transwell, 5 and 10 μM, 20 h
Experimental: The cell motility inhibitory effect of 16 on HCT-15 cells was evaluated by invasion assay. Briefly, cells were harvested and resuspended in serum-free medium that contained 0.625, 1.25, 2.5, 5, and 10 μM of 16, and were seeded into the upper wells of a transwell chamber (Millicell, […] pore size, 12-mm diameter Millipore) coated with 50 μL of Matrigel (1:3 dilution in serum-free medium, Corning/BD Biosciences) at a density of 2 × 10^5 cells/mL. Meanwhile, 600 μL medium containing 10% FBS and corresponding samples were added into the lower chambers. Then, 20 h later, the invading cells were fixed with 4% paraformaldehyde and stained with 0.2% crystal violet for 30 min. Afterwards, the chambers were washed twice with PBS and left to dry. Cells which had migrated to the lower chamber of the transwell were photographed using a digital camera with an inverted microscope (Nikon ECLIPSE TE2000-U, Tokyo, Japan), and the crystal violet positive cells were counted.

caspase-3 = assay: Western blot, caspase-3 in HCT-15 cells; type: cell-based, human; settings: HCT-15, 0.625, 1.25, and 2.5 μM, p < 0.05, no concentration dependence
Experimental: (§1) The protein levels in HCT-15 cells were evaluated via Western blot analysis. The cells were cultured in dishes (10^7 cells per dish) and incubated overnight at 37 °C, 0.625, 1.25, 2.5, and 5 μM of 16 was added in triplicate after 24 h of incubation. Then, the cells were harvested and lysed in Laemmli buffer (glycerol, 1M TRIS pH 6.8, 1% SDS, MQ H2O and 20% β-mercaptoethanol). The samples were boiled for 5 min at 95 °C, and the protein content was determined using a BCA kit. Equal amounts of 30 μg of sample were placed on a Tris/HCl gel and separated by SDS-PAGE electrophoresis. Then, the samples were transferred to a PVDF membrane (Milibo, Co., Ltd., Billyka, MA, USA) and blocked with 5% skimmed milk powder for 2 h. Diluted primary antibodies Bcl-2 (1:3000), Bax (1:10,000), caspase-3 (l:2000), p62 (1:1000), Beclin1 (1:1000), LC3 (1:2000), and β-actin (1:1000) were incubated overnight at 4 °C, followed by a horseradish peroxidase-conjugated goat anti-rabbit IgG secondary antibody (ProteinTech, China) for 2 h at room temperature. Then, immunoreactivity was developed with diaminobenzidine solution, and scanned and recorded by a gel imaging system (G:BOX Chemi XL1.4, Frederick, MD, USA).

HCT-15 cells [2] = assay: Live/dead FDA/PI double staining, HCT-15; type: cell-based; settings: Homo sapiens, HCT-15, FDA/PI, 48 h, read-out: Viable cells retained
Experimental: HCT-15 or HUVEC cells were cultured in six-well plates for 24 h. The cells were washed with PBS and incubated with medium containing 0.625, 1.25, 2.5, 5, and 10 μM of 16 for 48 h. Afterwards, the medium was replaced, and the cells were washed twice with PBS, resuspended in the solution containing 100 μL FDA (0.02 mg/mL, Sigma, St. Louis, MO, USA) and 30 μL PI (0.02 mg/mL, Sigma, St. Louis, MO, USA), and treated in the dark at room temperature for 10 min. The cells were imaged with a fluorescence microscope (Nikon ECLIPSE TE2000-U, Tokyo, Japan).

HCT-15 cells [3] = assay: Wound healing (migration) assay, HCT-15; type: cell-based, human; settings: 24 h, control approximately 46%
Experimental: (§2) HCT-15 cells or HUVECs were seeded in six-well culture plates and allowed to grow to 80–90% confluence. Subsequently, a cell-free line was manually created by scratching the confluent cell monolayers with a 200 μL sterile pipette tip, and the detached cells were washed with PBS. The cells were then incubated with 10% FBS and different concentrations of 16 (0.625, 1.25, 2.5, 5, and 10 μM). Then, 24 h later, images of the same location were obtained using a microscope (Nikon ECLIPSE TE2000-U, Tokyo, Japan). Each experiment was carried out at least three times.

HCT-15 cells [4] = assay: Cell cycle analysis by flow cytometry; type: cell-based, human; settings: HCT-15, 1.25, 2.5, and 5 μM, 24 h
Experimental: HCT-15 cells were cultured in six-well plates overnight at 37 °C. The cells were treated with 1.25, 2.5, 5 μM of 16 or DMSO and incubated for 24 h. Afterwards, the cells were harvested, and 70% ice cold ethanol was used to fix cells at 4 °C. Subsequently, the cells were centrifuged to remove the fixative solution, washed twice with PBS, and exposed to 500 μL of PI/RNase working solution (Keygen Biotech, Nanjing, China) at 4 °C for 30 min in the dark. The cell cycle distribution was analyzed by flow cytometry.

p62/SQSTM1 (P62) = assay: Western blot, p62/SQSTM1 in HCT-15 cells; type: cell-based, human; settings: HCT-15, 1.25, 2.5, and 5 μM, concentration-dependent, p < 0.05
Experimental: as §1

HUVECs [5] = assay: Tube formation assay on Matrigel; type: cell-based, human; settings: HUVEC on Matrigel, 5 μM, 8 h
Experimental: Briefly, a 96-well plate was pre-coated with 50 μL Matrigel per well and incubated at 37 °C for 30 min. Then, 100 μL of HUVECs suspension (2 × 10^4) were added to each well. The cells were cultured with 1.25, 2.5, and 5 μM of 16 for 8 h. Subsequently, the tube formation was observed, randomly selected, and recorded by an inverted microscope.

HUVECs [6] = assay: Wound healing (migration) assay, HUVEC; type: cell-based, human; settings: 10 μM, 24 h, control 85%
Experimental: as §2

In the case of `COc1cc(NC(=O)[C@@H]2CCCN2)c2cc1Oc1ccc(cc1)C[C@H]1c3cc(c(OC)cc3CCN1C)Oc1c(OC)c(OC)cc3c1[C@H](C2)N(C)CC3` [Compound 16, 14-N-(L-proline)-tetrandrine], the Invaded cells (HCT-15 cells [1]) is reported as “almost no cancer cells were observed”, the Caspase-3 level (caspase-3) is reported as “significantly decreased” and the viability at 5 µM (HCT-15 cells [2]; 5 μM) is reported as 18.3%. The viability at 10 µM (HCT-15 cells [2]; 10 μM) was 17.6%, the “Scratched area covered (migration rate)” value (HCT-15 cells [3]; HCT-15, 5 μM) was 14.1% and the “Scratched area covered (migration rate)” value (HCT-15 cells [3]; HCT-15, 10 μM) was 10.5%. The “Effect on cell cycle redistribution” value (HCT-15 cells [4]) was “no significant influence on cell cycle redistribution”, the P62 contents (p62/SQSTM1 (P62)) was “significantly lessened” and the Tube formation (HUVECs [5]) was “almost no tube structure”. It also gave a Migration rate (HUVECs [6]) of 10.0%.

— paper PMC9268013, “Design, Synthesis, and Biological Evaluation of N14-Amino Acid-Substituted Tetrandrine Derivatives as Potential Antitumor Agents against Human Colorectal Cancer” (Molecules, 2022)
